In patent US10604555B2, “GIP derivatives and uses thereof” (priority 2018, dated 2020):
Entries after “also recorded” stand apart in the source; their conditions may differ.

Experiments:
[1] = Chemical stability: purity loss by LCMS; type: physicochemical; conditions: 37° C., 4 weeks, 250 μM, pH 7.4
Procedure: The aim of this study is to determine the chemical stability of GIP derivative compositions. As a measure of stability of the GIP derivative composition, the formation of high molecular weight peptide formation (% HMWP) as a function of time was analysed by size-exclusion chromatography (SEC-MS). Further, the purity loss of the GIP derivative compositions was measured by LCMS. Samples for chemical stability assays were freshly prepared before each assay. […] The pH of the sample was adjusted to the desired value using appropriate amounts of concentrated NaOH and HCl. […] The column oven was kept at 55° C. […] The solvents were pumped from a binary solvent manager system and mixed on the high pressure side in a mixer with a volume of 50 μl. The gradient and flow can be seen in table 4: [table] A Flow-through-needle auto sampler at 8° C. was used to inject 1 μl of each sample. The effluent passed through a tunable UV detector (TUV) tuned to 215 nm. The outlet from the UV detector passed to the electrospray source of the mass spectrometer. The capillary was held at 3 kV and dry nitrogen gas was purged at a flow of 750 I/h and a temperature of 250° C. The source block was kept at 120° C. and the large bore cone was flushed with nitrogen at 50 I/h with standard electrode potentials on the rest of the instrument. The MS was operated in high resolution mode with a nominal resolution of 35000. The ToF analyser was operated in ADC mode with an m/z window from 100-2000.

[2] = Chemical stability: HMWP formation by SEC-MS; type: physicochemical; conditions: 37° C., 4 weeks, 250 μM, pH 7.4
Procedure: The aim of this study is to determine the chemical stability of GIP derivative compositions. As a measure of stability of the GIP derivative composition, the formation of high molecular weight peptide formation (% HMWP) as a function of time was analysed by size-exclusion chromatography (SEC-MS). Further, the purity loss of the GIP derivative compositions was measured by LCMS. Samples for chemical stability assays were freshly prepared before each assay. […] The pH of the sample was adjusted to the desired value using appropriate amounts of concentrated NaOH and HCl. […] Formation of covalent oligomers (HMWPs) was analysed and identified by a SEC-MS method. […] The LC system was coupled to both a TUV detector operated at 215 nm, 10 Hz and a high resolution QToF mass spectrometer from Waters (Synapt G2S) operated in positive ion mode and m/z range of 100 to 4000 with normal resolution setting. Lock mass correction against Leu-Enkephalin was done every 31 sec. Spectra were processed in MassLynx version 4.1 and MaxEnt deconvoluted.

[3] = Dynamic Light Scattering Stability Index (DLS-SI); type: physicochemical; conditions: concentration only 5 μM instead of 250 μM; pH 7.4, 25° C.
human GIP receptor = biological target: T1, human GIP receptor (Homo sapiens, UniProt P48546); assay: In vitro potency (CRE luciferase; whole cells), BHK CRE luc2P hGIPR; type: cell-based; conditions: 0.2% HSA
T1 construct: expressed in transfected cells; host or cells: BHK (parent line BHKTS13), BHK CRE luc2P hGIPR clone #5
T1 sequence (P48546 22-466): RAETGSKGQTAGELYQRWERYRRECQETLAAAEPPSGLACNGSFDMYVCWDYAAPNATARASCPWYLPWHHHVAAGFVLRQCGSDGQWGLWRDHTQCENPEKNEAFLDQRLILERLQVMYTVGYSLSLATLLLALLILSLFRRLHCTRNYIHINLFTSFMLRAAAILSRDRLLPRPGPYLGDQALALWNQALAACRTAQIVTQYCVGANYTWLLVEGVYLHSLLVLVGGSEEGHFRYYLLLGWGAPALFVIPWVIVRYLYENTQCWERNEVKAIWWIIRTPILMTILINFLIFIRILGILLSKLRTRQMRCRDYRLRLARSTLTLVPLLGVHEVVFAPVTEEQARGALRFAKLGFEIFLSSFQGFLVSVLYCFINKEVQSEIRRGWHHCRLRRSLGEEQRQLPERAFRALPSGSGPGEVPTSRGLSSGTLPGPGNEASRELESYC
Procedure: (§1) In Vitro Potency (CRE Luciferase; Whole Cells)
(§2) The in vitro potency is the measure of human GIP, GLP-1 or glucagon receptor activation, respectively, in a whole cell assay.
(§3) In vitro potency was determined by measuring the response of the human GIP, GLP-1 or glucagon receptor in a reporter gene assay in individual cell lines. […] When the respective receptor is activated it results in the production of cAMP, which in turn results in the luciferase protein being expressed. When assay incubation is completed the luciferase substrate (luciferin) is added and the enzyme converts luciferin to oxyluciferin to produce bioluminescence. The luminescence is measured as the readout for the assay.
(§4) The cells were derived from a clone containing the CRE luciferase element and were established by further transfection with the respective receptor to obtain the current clone.
(§5) The cells were cultured at 5% CO2 in Cell Culture Medium. They were aliquoted and stored in liquid nitrogen. The cells were kept in passage and were seeded out the day before each assay.
(§6) The Assay Buffer consisted of 1% ovalbumin and 0.1% Pluronic F-68 in Assay Medium with the addition of human serum albumin at twice the indicated concentrations.
(§7) 1) Cells were plated at 5000 cells/well and incubated overnight.
(§8) 2) Cells were washed three times in PBS.
(§9) 3) Assay Medium (50 μl aliquot) with or without serum albumin was added to each well in the assay plate.
(§10) 4) Stocks of the test compounds and reference compounds were diluted to a concentration of 0.2 μM in Assay Buffer. […] 8) The cells were washed three times with PBS plus some liquid in each well. 9) A 100 μl aliquot of steadylite plus reagent was added to each well of the assay plate (reagent was light sensitive). 10) Each assay plate was covered with aluminum foil to protect it from light and shaken for 30 min at room temperature. 11) Each assay plate was read in a microtiter plate reader. Calculations and Results
(§11) The data from the microtiter plate reader was transferred to GraphPad Prism software. The software performs a non-linear regression (log(agonist) vs response).
(§12) A minimum of two replicates was measured for each sample. The reported values are averages of the replicates.

[4] = ThT fibrillation assay (physical stability); type: physicochemical; conditions: 250 μM, pH 7.4, 37° C., 45 hours of incubation
Procedure: The Thioflavin T assay was performed as outlined in Schlein (2017), AAPS J, 19(2), 397-408.
This has traditionally been measured by visual inspection of the sample. However, that kind of measurement is very cumbersome and depending on the observer. Therefore, the application of a small molecule indicator probe is much more advantageous. Thioflavin T (ThT) is such a probe and has a distinct fluorescence signature when binding to fibrils [Naiki et al. (1989) Anal. Biochem. 177, 244-249; LeVine (1999) Methods. Enzymol. 309, 274-284].
The time course for fibril formation can be described by a sigmoidal curve with the following expression [Nielsen et al. (2001) Biochemistry 40, 6036-6046]:
Here, F is the ThT fluorescence at the time t. The constant t0 is the time needed to reach 50% of maximum fluorescence. The two important parameters describing fibril formation are the lag-time calculated by t0−2τ and the apparent rate constant kapp 1/τ.
Few of those intermediates nucleate to form a template onto which further intermediates may assembly and the fibrillation proceeds. The lag-time corresponds to the interval in which the critical mass of nucleus is built up and the apparent rate constant is the rate with which the fibril itself is formed.
Samples are prepared freshly before each assay. The drug substance was solved with 250 μM of the GIP derivative in 8 mM phosphate, 14 mg/mL propylene glycol, 58 mM phenol, pH 7.4. The pH of the sample was adjusted to the desired value using appropriate amounts of concentrated NaOH and HCl. Thioflavin T was added to the samples from a stock solution in H2O to a final concentration of 1 μM.
Sample aliquots of 200 μl were placed in each well of a 96 well microtiter plate (Packard OptiPlate™-96, white polystyrene). Four replica of each sample (corresponding to one test condition) was placed in one column of wells. The plate was sealed with Scotch Pad (Qiagen).
Incubation, shaking and measurement of the ThT fluorescence emission were done in a Fluoroskan Ascent FL fluorescence platereader (Thermo Labsystems). […] Fluorescence measurement was done using excitation through a 444 nm filter and measurement of emission through a 485 nm filter.
Each run was initiated by incubating the plate at the assay temperature for 10 min. The plate was measured every 20 minutes for a desired period of time. Between each measurement, the plate was shaken and heated as described.
After completion of the ThT assay the replica of each sample was pooled and centrifuged at 20000 rpm for 30 minutes at 18° C. The supernatant was filtered through a 0.22 μm filter and an aliquot was transferred to a HPLC vial. The concentration of the filtered sample relative to the initial sample (in percentage) was reported as the recovery.
The measurement points were saved in Microsoft Excel format for further processing and curve drawing and fitting was performed using GraphPad Prism. […] The data points were a mean of the four replica and shown with standard deviation error bars. Only data obtained in the same experiment (i.e. samples on the same plate) were presented in the same graph ensuring a relative measure of fibrillation between experiments.
The data set may be fitted to Eq. (1).

human GLP-1 receptor = biological target: T2, human GLP-1 receptor (Homo sapiens, UniProt P43220); assay: In vitro potency (CRE luciferase; whole cells), BHK CRE luc2P hGLP-1R; type: cell-based; conditions: 0.2% HSA
T2 construct: expressed in transfected cells; host or cells: BHK (parent line BHKTS13), BHK CRE luc2P hGLP-1R clone #6
Procedure: as §1, §2, §3, §4, §5, §6, §7, §8, §9, §10, §11, §12

T2 sequence (P43220 24-463): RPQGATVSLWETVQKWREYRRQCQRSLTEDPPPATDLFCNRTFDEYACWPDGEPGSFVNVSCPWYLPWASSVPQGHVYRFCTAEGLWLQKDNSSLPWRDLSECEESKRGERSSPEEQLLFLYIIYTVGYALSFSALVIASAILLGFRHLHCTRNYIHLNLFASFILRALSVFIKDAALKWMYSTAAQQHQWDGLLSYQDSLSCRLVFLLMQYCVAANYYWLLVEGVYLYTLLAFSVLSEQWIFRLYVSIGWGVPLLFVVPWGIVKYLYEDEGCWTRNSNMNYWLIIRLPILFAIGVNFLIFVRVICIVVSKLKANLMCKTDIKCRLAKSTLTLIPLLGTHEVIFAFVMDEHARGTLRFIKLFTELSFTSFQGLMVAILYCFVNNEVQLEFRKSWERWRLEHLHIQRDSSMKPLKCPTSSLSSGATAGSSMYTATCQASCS

| Compound | Purity loss (%/month) [1] [%/month] | HMWP formation (%/month) [2] [%/month] | DLS-SI precipitates [3] | EC50 (human GIP receptor) [nM] | ThT Assay Lag time [4] [h] | EC50 (human GLP-1 receptor) [nM] |
| --- | --- | --- | --- | --- | --- | --- |
| CC[C@H](C)[C@H](NC(=O)[C@H](CO)NC(=O)[C@H](Cc1ccc(O)cc1)NC(=O)[C@H](CC(=O)O)NC(=O)[C@H](CO)NC(=O)[C@@H](NC(=O)[C@H](Cc1ccccc1)NC(=O)[C@@H](NC(=O)CNC(=O)[C@H](CCC(=O)O)NC(=O)[C@H](C)NC(=O)[C@@H](N)Cc1ccc(O)cc1)[C@@H](C)O)[C@@H](C)CC)C(=O)N[C@@H](C)C(=O)N[C@@H](CCSC)C(=O)N[C@@H](CC(=O)O)C(=O)N[C@@H](CCCCN)C(=O)N[C@H](C(=O)N[C@@H](Cc1c[nH]cn1)C(=O)N[C@@H](CCC(N)=O)C(=O)N[C@@H](CCC(N)=O)C(=O)N[C@@H](CC(=O)O)C(=O)N[C@@H](Cc1ccccc1)C(=O)N[C@H](C(=O)N[C@@H](CC(N)=O)C(=O)N[C@@H](Cc1c[nH]c2ccccc12)C(=O)N[C@@H](CC(C)C)C(=O)N[C@@H](CC(C)C)C(=O)N[C@@H](C)C(=O)N[C@@H](CCC(N)=O)C(=O)N[C@@H](CCCCN)C(=O)NCC(=O)O)C(C)C)[C@@H](C)CC [hGIP(1-31), reference compound] | 86.9 | 0.15 | visible as precipitation; also recorded: Yes^## | 0.00224 | 0 |  |
| CCCC[C@H](NC(=O)[C@H](C)NC(=O)[C@@H](NC(=O)[C@H](CO)NC(=O)[C@H](Cc1ccc(O)cc1)NC(=O)[C@H](CC(=O)O)NC(=O)[C@H](CO)NC(=O)[C@@H](NC(=O)[C@H](Cc1ccccc1)NC(=O)[C@@H](NC(=O)CNC(=O)[C@H](CCC(=O)O)NC(=O)C(C)(C)NC(=O)[C@@H](Cc1ccc(O)cc1)NC(C)=O)[C@@H](C)O)[C@@H](C)CC)[C@@H](C)CC)C(=O)N[C@@H](CC(=O)O)C(=O)N[C@@H](CCCCN)C(=O)N[C@H](C(=O)N[C@@H](CCCNC(=N)N)C(=O)N[C@@H](CCC(N)=O)C(=O)N[C@@H](CCC(N)=O)C(=O)N[C@@H](CC(=O)O)C(=O)N[C@@H](Cc1ccccc1)C(=O)N[C@H](C(=O)N[C@@H](CCCCNC(=O)CC[C@H](NC(=O)CC[C@H](NC(=O)CC[C@H](NC(=O)CCCCCCCCCCCCCCCCC(=O)O)C(=O)O)C(=O)O)C(=O)O)C(=O)N[C@@H](Cc1c[nH]c2ccccc12)C(=O)N[C@@H](CC(C)C)C(=O)N[C@@H](CC(C)C)C(=O)N[C@@H](C)C(=O)N[C@@H](CCC(N)=O)C(=O)N[C@@H](CCCCN)C(=O)N1CCC[C@H]1C(N)=O)C(C)C)[C@@H](C)CC [Compound 46, N{1}-acetyl,N{Epsilon-24}-[(4S)-4-carboxy-4-[[(4S)-4-carboxy-4-[[(4S)-4-carboxy-4-(17-carboxyheptadecanoylamino)butanoyl]amino]butanoyl]amino]butanoyl]-[D-Tyr1,Aib2,Nle14,Arg18,Lys24,Pro31]-hGIP(1-31) amide] |  |  |  | 0.0212 |  | > 100 |
